These results are taken from US20140005163A1 (NOVARTIS AG, priority 2010, published 2014).

By pIC50 is commonly meant −log10 of the IC50, conventionally taken in molar units. The solubility is the concentration that dissolves in the medium under given conditions.

pIC50: −log10 of the molar value. In brackets after ≈: the same amount, converted by molar mass. Some results are limits rather than exact numbers.

For one data set, the target named is T1, mTOR (Homo sapiens, UniProt P42345).
T1 construct: purchased Invitrogen Corporation (Carlsbad/CA, USA) PV4753
T1 sequence (P42345 1360-2549 limits assumed): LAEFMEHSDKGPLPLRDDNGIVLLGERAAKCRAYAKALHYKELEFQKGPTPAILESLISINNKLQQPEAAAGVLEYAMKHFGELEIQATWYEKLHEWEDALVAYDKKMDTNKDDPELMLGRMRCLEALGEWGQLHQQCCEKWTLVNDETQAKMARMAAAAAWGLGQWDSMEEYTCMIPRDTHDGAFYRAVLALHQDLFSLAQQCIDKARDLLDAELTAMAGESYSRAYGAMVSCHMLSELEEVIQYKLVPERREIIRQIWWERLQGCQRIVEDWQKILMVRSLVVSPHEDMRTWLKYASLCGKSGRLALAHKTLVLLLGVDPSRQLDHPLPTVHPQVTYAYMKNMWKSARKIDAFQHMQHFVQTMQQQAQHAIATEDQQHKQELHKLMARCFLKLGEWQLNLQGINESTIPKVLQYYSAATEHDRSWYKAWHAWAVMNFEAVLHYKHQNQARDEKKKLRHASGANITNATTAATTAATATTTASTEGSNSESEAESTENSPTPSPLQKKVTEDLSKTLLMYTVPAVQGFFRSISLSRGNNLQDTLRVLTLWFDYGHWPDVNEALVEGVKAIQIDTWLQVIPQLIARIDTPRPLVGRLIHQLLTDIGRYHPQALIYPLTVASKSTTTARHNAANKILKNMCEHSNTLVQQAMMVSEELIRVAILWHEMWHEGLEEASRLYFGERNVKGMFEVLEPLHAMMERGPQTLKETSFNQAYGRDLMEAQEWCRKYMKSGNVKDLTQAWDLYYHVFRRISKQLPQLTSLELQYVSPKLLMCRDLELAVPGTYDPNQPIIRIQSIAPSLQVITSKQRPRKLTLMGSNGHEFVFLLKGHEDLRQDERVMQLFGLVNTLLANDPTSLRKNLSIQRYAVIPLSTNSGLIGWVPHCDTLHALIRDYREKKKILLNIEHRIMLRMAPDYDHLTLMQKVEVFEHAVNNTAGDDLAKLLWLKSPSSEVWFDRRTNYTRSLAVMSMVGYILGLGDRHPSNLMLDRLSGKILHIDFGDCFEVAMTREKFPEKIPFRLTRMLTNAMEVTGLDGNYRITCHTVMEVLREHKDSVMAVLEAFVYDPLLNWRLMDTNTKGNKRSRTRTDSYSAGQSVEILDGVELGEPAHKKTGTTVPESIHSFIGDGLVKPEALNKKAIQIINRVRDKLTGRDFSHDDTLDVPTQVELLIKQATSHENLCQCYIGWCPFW
The data set can be described thus: Biochemical assay for m-TOR by TR-FRET. To be noted: 8 μM ATP, 400 nM GFP-4EBP1, 0.5 nM mTOR. The essentials:
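Enzyme 0.5 nM, GFP-4EBP1 400 nM, ATP 8 μM (all final); 50 mM HEPES pH 7.5, 10 mM MnCl2, 1 mM DTT; rt. Detection: Tb-α-p4EBP1 [pT46] 0.5 nM in EDTA, TR-FRET, 15 min. Reference compound on every plate, 16-point duplicate dilutions.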
A general note: TR-FRET usually uses a lanthanide donor and a delayed reading to cut background.

Data set [1] in a line: Cellular CaCo2 permeability assay from apical to basal (A-B). It is filed as in vitro ADME. To be noted: human, Caco-2, read-out: Pe A-B (permeability). The source says:
The permeability in 10^−6 cm/s of compounds of formula (I) have been confirmed for selected example using a cellular CaCo2 permeability assay from apical to basal (A-B): […]

The nature of another data set: Solubility at pH 6.8. The format is physicochemical. To be noted: pH 6.8, aqueous buffer, thermodynamic from solid; read-out: solubility. An outline of the steps:
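Following the procedure of Zhou et al. (2007), compound solubility was determined at pH 6.8.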

For a further data set, the target named is T2, PI3K gamma (Homo sapiens, UniProt P48736).
T2 construct: His tag (C); made in house; host or cells: baculovirus (pVL1393); Tn5 or TiniPro insect cells; construct from Roger Williams lab, MRC LMB
T2 sequence (P48736 144-1102 limits assumed): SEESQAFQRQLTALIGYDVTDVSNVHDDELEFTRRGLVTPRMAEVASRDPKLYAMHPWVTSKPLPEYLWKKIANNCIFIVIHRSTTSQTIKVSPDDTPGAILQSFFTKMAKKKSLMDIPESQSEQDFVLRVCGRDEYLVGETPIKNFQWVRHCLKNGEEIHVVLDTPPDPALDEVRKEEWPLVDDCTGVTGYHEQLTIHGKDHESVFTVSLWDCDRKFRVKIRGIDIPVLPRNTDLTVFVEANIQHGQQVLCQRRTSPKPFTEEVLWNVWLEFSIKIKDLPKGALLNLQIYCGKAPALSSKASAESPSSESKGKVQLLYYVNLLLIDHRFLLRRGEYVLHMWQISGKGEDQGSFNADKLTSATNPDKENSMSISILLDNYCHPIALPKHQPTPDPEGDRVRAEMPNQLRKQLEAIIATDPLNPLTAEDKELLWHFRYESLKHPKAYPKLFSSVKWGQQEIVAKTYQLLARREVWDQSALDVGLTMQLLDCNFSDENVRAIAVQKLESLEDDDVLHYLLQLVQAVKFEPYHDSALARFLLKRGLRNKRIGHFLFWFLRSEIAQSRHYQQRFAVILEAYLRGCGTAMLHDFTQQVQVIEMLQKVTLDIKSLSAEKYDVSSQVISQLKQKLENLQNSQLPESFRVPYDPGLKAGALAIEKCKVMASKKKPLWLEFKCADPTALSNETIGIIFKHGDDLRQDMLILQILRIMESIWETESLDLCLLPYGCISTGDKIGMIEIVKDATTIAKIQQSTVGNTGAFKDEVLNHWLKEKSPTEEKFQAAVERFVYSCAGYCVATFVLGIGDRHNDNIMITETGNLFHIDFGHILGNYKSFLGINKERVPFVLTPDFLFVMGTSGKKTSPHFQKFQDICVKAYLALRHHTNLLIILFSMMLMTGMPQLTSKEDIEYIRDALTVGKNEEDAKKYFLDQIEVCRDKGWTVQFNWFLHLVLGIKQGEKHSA
The data set can be described thus: PI3K gamma kinase assay (Kinase-Glo luminescence). It is filed as biochemical. An outline of the steps: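 PI3Kγ (150 nM) reaction run 120 min at room temperature with phosphatidylinositol substrate (10 μg/mL) and ATP (1 μM) in Tris pH 7.5 buffer containing MgCl2, NaCl, CHAPS and DTT. Remaining ATP detected by Kinase-Glo luminescence; 8 concentrations per compound, IC50 from 4-parameter curve fitting.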
A general note: Kinase-Glo measures the ATP left after a reaction by luminescence.

For the compound `CCNc1cc(-c2ccc3ncc4c(c3c2)n(-c2cn(C)nc2C)c(=O)n4C)cnc1C` [Example 87.1, 1-(1,3-Dimethyl-1H-pyrazol-4-yl)-8-(5-ethylamino-6-methyl-pyridin-3-yl)-3-methyl-1,3-dihydro-imidazo[4,5-c]quinolin-2-one], at mTOR, the pIC50 is 8.52. In addition, the Papp A→B in data set [1] worked out at 17 ×10⁻⁶ cm/s. Further, the solubility in “Solubility at pH 6.8” stood at 410 µg/mL (≈ 959 µM).
In the same order, the values of `Cc1nn(C)cc1-n1c(=O)n(C)c2cnc3ccc(-c4ccc(N5CCN(C)CC5)nc4)cc3c21` [Example 96, 1-(1,3-Dimethyl-1H-pyrazol-4-yl)-3-methyl-8-[6-(4-methyl-piperazin-1-yl)-pyridin-3-yl]-1,3-dihydro-imidazo[4,5-c]quinolin-2-one] are 7.06, 6 ×10⁻⁶ cm/s and over 469 µg/mL.
Regarding `COc1ccc(-c2ccc3ncc4c(c3c2)n(-c2cn(CC(=O)N(C)C)nc2C)c(=O)n4C)cn1` [Example 102, 2-{4-[8-(6-Methoxy-pyridin-3-yl)-3-methyl-2-oxo-2,3-dihydro-imidazo[4,5-c]quinolin-1-yl]-3-methyl-pyrazol-1-yl}-N,N-dimethyl-acetamide], the pIC50 was 7.96 on mTOR and 6.61 at PI3K gamma. In data set [1], the Papp A→B came to 7.7 ×10⁻⁶ cm/s. Further, the solubility in “Solubility at pH 6.8” was found to be 7 µg/mL (≈ 14.8 µM).
With `CCn1cc(-n2c(=O)n(C)c3cnc4ccc(-c5ccc(COC)nc5)cc4c32)c(C)n1` [Example 104, 1-(1-Ethyl-3-methyl-1H-pyrazol-4-yl)-8-(6-methoxymethyl-pyridin-3-yl)-3-methyl-1,3-dihydro-imidazo[4,5-c]quinolin-2-one], the pIC50 at mTOR was 7.28; on PI3K gamma it was 6.24. The Papp A→B in data set [1] amounted to 20.5 ×10⁻⁶ cm/s. Moreover, in “Solubility at pH 6.8”, the solubility is 4 µg/mL (≈ 9.33 µM).
Regarding `Cc1nn(C)cc1-n1c(=O)n(C)c2cnc3ccc(-c4cccc(N(C)S(C)(=O)=O)c4)cc3c21` [Example 117, N-{3-[1-(1,3-Dimethyl-1H-pyrazol-4-yl)-3-methyl-2-oxo-2,3-dihydro-1H-imidazo[4,5-c]quinolin-8-yl]-phenyl}-N-methyl-methanesulfonamide], the pIC50 on mTOR was 6.33; on PI3K gamma, 6.65. Also, the solubility in “Solubility at pH 6.8” is 3 µg/mL (≈ 6.3 µM).
In the same order, the values of `CNc1ccc(-c2ccc3ncc4c(c3c2)n(-c2cn(C(C)C)nc2C)c(=O)n4C)cn1` [Example 118.1, 1-(1-isopropyl-3-methyl-1H-pyrazol-4-yl)-3-methyl-8-(6-methylamino-pyridin-3-yl)-1,3-dihydro-imidazo[4,5-c]quinolin-2-one] are 8.30, 6.79 and 3 µg/mL (≈ 7.02 µM).
Turning to `CNc1ccc(-c2ccc3ncc4c(c3c2)n(-c2cn(CC(=O)N(C)C)nc2C)c(=O)n4C)cn1` [Example 118.3, N,N-Dimethyl-2-{3-methyl-4-[3-methyl-8-(6-methylamino-pyridin-3-yl)-2-oxo-2,3-dihydro-imidazo[4,5-c]quinolin-1-yl]-pyrazol-1-yl}-acetamide], the pIC50 at mTOR is 8.05; on PI3K gamma, 6.86. Besides, the solubility in the data set “Solubility at pH 6.8” was found to be 21 µg/mL (≈ 44.6 µM).
